Laboratory results taken from ChEMBL document CHEMBL4673347, “Discovery of new thieno[2,3-d]pyrimidine and thiazolo[5,4-d]pyrimidine derivatives as orally active phosphoinositide 3-kinase inhibitors” (Bioorg Med Chem, 2021).

Experiments:
[1] = molecular target: Phosphatidylinositol 4,5-bisphosphate 3-kinase catalytic subunit alpha isoform (Homo sapiens, UniProt P42336); assay: Inhibition of recombinant human full length His-tagged PI3Kalpha expressed in baculovirus expression system using PIP2 as substrate by ADP-Glo reagent based assay
HGC-27 [2] = assay: Antiproliferative activity against human HGC-27 cells assessed as reduction in cell viability incubated for 72 hrs measured after 4 hrs of MTT addition by MTT assay; assay type: functional, cell-based
HGC-27 [3] = assay: Induction of apoptosis in human HGC-27 cells assessed as early apoptotic cells at 500 nM incubated for 24 hrs by annexin V-FITC and propidium iodide based staining based flow cytometry analysis (reference value: 6.22 %); assay type: functional
HGC-27 [4] = assay: Induction of apoptosis in human HGC-27 cells assessed as viable cells at 500 nM incubated for 24 hrs by annexin V-FITC and propidium iodide based staining based flow cytometry analysis (reference value: 83.7 %); assay type: functional; settings: read-out: Activity
HGC-27 [5] = assay: Induction of apoptosis in human HGC-27 cells assessed as late apoptotic cells at 500 nM incubated for 24 hrs by annexin V-FITC and propidium iodide based staining based flow cytometry analysis (reference value: 8.15 %); assay type: functional
HGC-27 [6] = assay: Induction of apoptosis in human HGC-27 cells assessed as necrotic cells at 500 nM incubated for 24 hrs by annexin V-FITC and propidium iodide based staining based flow cytometry analysis (reference value: 1.95 %); assay type: functional

Chain of Phosphatidylinositol 4,5-bisphosphate 3-kinase catalytic subunit alpha isoform (P42336 whole entry, canonical isoform): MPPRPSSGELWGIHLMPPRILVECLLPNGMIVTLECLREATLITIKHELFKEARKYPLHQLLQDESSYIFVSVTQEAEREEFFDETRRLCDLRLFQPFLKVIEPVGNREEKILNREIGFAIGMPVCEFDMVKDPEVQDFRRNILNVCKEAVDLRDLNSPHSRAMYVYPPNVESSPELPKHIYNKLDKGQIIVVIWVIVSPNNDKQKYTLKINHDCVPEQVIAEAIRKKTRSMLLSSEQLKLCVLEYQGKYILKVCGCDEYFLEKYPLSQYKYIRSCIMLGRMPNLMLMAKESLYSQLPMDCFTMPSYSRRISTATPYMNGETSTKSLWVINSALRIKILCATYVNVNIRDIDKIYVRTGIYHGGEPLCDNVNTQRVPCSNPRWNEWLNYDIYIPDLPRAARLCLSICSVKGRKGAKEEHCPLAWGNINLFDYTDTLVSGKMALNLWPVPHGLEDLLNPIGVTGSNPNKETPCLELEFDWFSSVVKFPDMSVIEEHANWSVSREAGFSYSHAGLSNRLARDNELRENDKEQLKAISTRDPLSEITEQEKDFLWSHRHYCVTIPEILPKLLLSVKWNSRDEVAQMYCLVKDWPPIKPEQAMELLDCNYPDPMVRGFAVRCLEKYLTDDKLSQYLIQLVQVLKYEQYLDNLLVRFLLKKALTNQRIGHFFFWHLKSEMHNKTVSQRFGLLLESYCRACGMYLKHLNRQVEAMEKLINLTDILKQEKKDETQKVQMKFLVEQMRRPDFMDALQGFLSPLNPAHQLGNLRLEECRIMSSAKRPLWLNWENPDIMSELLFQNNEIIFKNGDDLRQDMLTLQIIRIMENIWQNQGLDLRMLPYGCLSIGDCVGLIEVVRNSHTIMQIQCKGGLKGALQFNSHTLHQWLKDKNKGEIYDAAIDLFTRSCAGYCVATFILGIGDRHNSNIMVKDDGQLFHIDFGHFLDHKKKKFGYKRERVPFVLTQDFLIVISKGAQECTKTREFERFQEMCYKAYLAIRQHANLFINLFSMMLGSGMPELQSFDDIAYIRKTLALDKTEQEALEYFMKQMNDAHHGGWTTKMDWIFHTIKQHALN

Q: Which results are given for `COc1ncc(-c2nc3c(N4CC(C)OC(C)C4)ncnc3s2)cc1NS(=O)(=O)c1ccc(F)cc1F` (stereo unspecified)?
A: IC50 [1]: 0.011 µM; IC50 (HGC-27 [2]): 0.27 µM

Q: With `COc1ncc(-c2cc3c(N4CC(C)OC(C)C4)ncnc3s2)cc1NS(=O)(=O)c1ccc(F)cc1F` (racemic) as the compound, how does the IC50 [1] read?
A: 0.016 µM

Q: And the IC50 (HGC-27 [2])?
A: 0.86 µM

Q: Which results are given for `COc1ncc(-c2nc3c(N4CCCC4)ncnc3s2)cc1NS(=O)(=O)c1ccc(F)cc1F`?
A: IC50 [1]: 0.0035 µM; IC50 (HGC-27 [2]): 1.2 µM

Q: How did the IC50 [1] turn out when `COc1ncc(-c2cc3c(N4C[C@@H](C)O[C@@H](C)C4)ncnc3s2)cc1NS(=O)(=O)c1ccc(F)cc1F` was run?
A: 0.015 µM

Q: And the IC50 (HGC-27 [2])?
A: 0.56 µM

Q: For `COc1ncc(-c2cc3c(N4CCCCC4)ncnc3s2)cc1NS(=O)(=O)c1ccc(F)cc1F`, which IC50 [1] is on record?
A: 0.014 µM

Q: What about the IC50 (HGC-27 [2]) of the same compound?
A: 1.2 µM

Q: With `COc1ncc(-c2cc3c(N4CC(OC)C4)ncnc3s2)cc1NS(=O)(=O)c1ccc(F)cc1F` as the compound, how does the IC50 [1] read?
A: 0.0072 µM

Q: What about the IC50 (HGC-27 [2]) of the same compound?
A: 0.83 µM

Q: For `COc1ncc(-c2cc3c(-c4ccncc4)ncnc3s2)cc1NS(=O)(=O)c1ccc(F)cc1F`, which IC50 [1] is on record?
A: 0.0051 µM

Q: What about the IC50 (HGC-27 [2]) of the same compound?
A: 1.7 µM

Q: Which results are given for `COc1ncc(-c2cc3c(N4CCCC4)ncnc3s2)cc1NS(=O)(=O)c1ccc(F)cc1F`?
A: IC50 [1]: 0.014 µM; IC50 (HGC-27 [2]): 2.3 µM

Q: For `COc1ncc(-c2cc3c(N4CCN(C)CC4)ncnc3s2)cc1NS(=O)(=O)c1ccc(F)cc1F`, which IC50 [1] is on record?
A: 0.109 µM

Q: And the IC50 (HGC-27 [2])?
A: 0.56 µM

Q: Which IC50 [1] does the source give for `COc1ncc(-c2cc3c(N4CCOC[C@H]4C)ncnc3s2)cc1NS(=O)(=O)c1ccc(F)cc1F` here?
A: 0.014 µM

Q: And the IC50 (HGC-27 [2])?
A: 0.47 µM

Q: Which results are given for `COc1ncc(-c2cc3c(N4CCSCC4)ncnc3s2)cc1NS(=O)(=O)c1ccc(F)cc1F`?
A: IC50 [1]: 0.017 µM; IC50 (HGC-27 [2]): 0.81 µM

Q: Which results are given for `COc1ncc(-c2nc3c(N4CCOC[C@H]4C)ncnc3s2)cc1NS(=O)(=O)c1ccc(F)cc1F`?
A: IC50 [1]: 0.0019 µM; IC50 (HGC-27 [2]): 0.047 µM

Q: How did the Activity (HGC-27 [3]) turn out when `Nc1cc(C(F)(F)F)c(-c2cc(N3CCOCC3)nc(N3CCOCC3)n2)cn1` [BUPARLISIB] was run?
A: 15.9%

Q: What about the viability at 0.5 µM (HGC-27 [4]) of the same compound?
A: 74.9%

Q: And the Activity (HGC-27 [5])?
A: 8.93%

Q: What about the Activity (HGC-27 [6]) of the same compound?
A: 0.3%

Q: Which IC50 [1] does the source give for `COc1ncc(-c2cc3c(N4CCOC[C@@H]4C)ncnc3s2)cc1NS(=O)(=O)c1ccc(F)cc1F` here?
A: 0.011 µM

Q: What about the IC50 (HGC-27 [2]) of the same compound?
A: 0.67 µM

Q: Which results are given for `COc1ncc(-c2nc3c(N4CCCCC4)ncnc3s2)cc1NS(=O)(=O)c1ccc(F)cc1F`?
A: IC50 [1]: 0.0088 µM; IC50 (HGC-27 [2]): 0.96 µM

Q: Which results are given for `COc1ncc(-c2nc3c(N4CCC(OC)CC4)ncnc3s2)cc1NS(=O)(=O)c1ccc(F)cc1F`?
A: IC50 [1]: 0.0013 µM; IC50 (HGC-27 [2]): 0.074 µM

Q: Which results are given for `COc1ncc(-c2nc3c(N4CCOC[C@@H]4C)ncnc3s2)cc1NS(=O)(=O)c1ccc(F)cc1F`?
A: IC50 [1]: 0.002 µM; IC50 (HGC-27 [2]): 0.17 µM

Q: What does the source list for `COc1ncc(-c2cc3c(N4CCN(C)C(=O)C4)ncnc3s2)cc1NS(=O)(=O)c1ccc(F)cc1F`?
A: IC50 [1]: 0.016 µM; IC50 (HGC-27 [2]): 0.92 µM

Q: Which results are given for `COc1ncc(-c2cc3c(N4CC5CCCC5C4)ncnc3s2)cc1NS(=O)(=O)c1ccc(F)cc1F` (stereo unspecified)?
A: IC50 [1]: 0.047 µM; IC50 (HGC-27 [2]): 1.9 µM

Q: Which IC50 [1] does the source give for `COc1ncc(-c2cc3c(N4CC5COCC5C4)ncnc3s2)cc1NS(=O)(=O)c1ccc(F)cc1F` (stereo unspecified) here?
A: 0.014 µM

Q: And the IC50 (HGC-27 [2])?
A: 0.3 µM

Q: Which results are given for `COc1ncc(-c2cc3c(N4CCC(OC)CC4)ncnc3s2)cc1NS(=O)(=O)c1ccc(F)cc1F`?
A: IC50 [1]: 0.0048 µM; IC50 (HGC-27 [2]): 0.28 µM

Q: How did the IC50 [1] turn out when `COc1ncc(-c2nc3c(N4CC5CCCC5C4)ncnc3s2)cc1NS(=O)(=O)c1ccc(F)cc1F` (stereo unspecified) was run?
A: 0.0063 µM

Q: And the IC50 (HGC-27 [2])?
A: 0.31 µM
